Experiment [1] has as its target T1, Zinc finger protein mex-5 (Caenorhabditis elegans, UniProt Q9XUB2).
T1 sequence (Q9XUB2 whole entry): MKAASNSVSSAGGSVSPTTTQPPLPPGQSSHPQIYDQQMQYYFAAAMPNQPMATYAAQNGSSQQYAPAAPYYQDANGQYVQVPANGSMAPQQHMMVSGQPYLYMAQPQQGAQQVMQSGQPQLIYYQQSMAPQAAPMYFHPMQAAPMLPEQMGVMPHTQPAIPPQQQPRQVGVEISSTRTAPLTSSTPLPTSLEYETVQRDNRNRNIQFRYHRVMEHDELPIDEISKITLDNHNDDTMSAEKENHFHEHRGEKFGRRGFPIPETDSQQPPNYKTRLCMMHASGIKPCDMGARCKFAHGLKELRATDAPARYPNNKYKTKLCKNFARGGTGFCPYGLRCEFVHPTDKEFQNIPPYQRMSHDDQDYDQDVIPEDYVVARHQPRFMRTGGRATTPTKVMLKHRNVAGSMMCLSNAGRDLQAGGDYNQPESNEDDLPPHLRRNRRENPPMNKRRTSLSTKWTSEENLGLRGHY
The experiment is described as follows: potency of MEX-5 RNA-binding blockers – biochemical, C. elegans, fluorescence polarization, dose response (AID 1960). A general note: In fluorescence polarisation assays a small probe gives low polarisation when free and higher when bound to something large.

The target of experiment [2] is T2, RNA-binding protein pos-1 (Caenorhabditis elegans, UniProt G5EF15).
T2 sequence (G5EF15 whole entry): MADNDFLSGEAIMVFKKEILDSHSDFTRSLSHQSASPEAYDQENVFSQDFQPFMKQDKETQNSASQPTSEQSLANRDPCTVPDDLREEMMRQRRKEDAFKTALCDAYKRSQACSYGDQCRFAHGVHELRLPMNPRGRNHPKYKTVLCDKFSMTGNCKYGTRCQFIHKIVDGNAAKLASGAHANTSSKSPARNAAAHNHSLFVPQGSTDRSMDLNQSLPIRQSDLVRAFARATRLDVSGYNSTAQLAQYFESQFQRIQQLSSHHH
The experiment is described as follows: disruptors of C. elegans POS-1 RNA interaction – biochemical, fluorescence polarization, dose response (AID 1964).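 Also: purified POS-1 fused to maltose binding protein made in E. coli; potency of compounds blocking POS-1 binding to fluorescent RNA.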

In a further experiment the target is Cytochrome P450 2C9 (Homo sapiens, UniProt P11712).
The next experiment has as its target T3, Protein RecA (Mycobacterium tuberculosis, UniProt P9WHJ3).
T3 sequence (P9WHJ3 whole entry): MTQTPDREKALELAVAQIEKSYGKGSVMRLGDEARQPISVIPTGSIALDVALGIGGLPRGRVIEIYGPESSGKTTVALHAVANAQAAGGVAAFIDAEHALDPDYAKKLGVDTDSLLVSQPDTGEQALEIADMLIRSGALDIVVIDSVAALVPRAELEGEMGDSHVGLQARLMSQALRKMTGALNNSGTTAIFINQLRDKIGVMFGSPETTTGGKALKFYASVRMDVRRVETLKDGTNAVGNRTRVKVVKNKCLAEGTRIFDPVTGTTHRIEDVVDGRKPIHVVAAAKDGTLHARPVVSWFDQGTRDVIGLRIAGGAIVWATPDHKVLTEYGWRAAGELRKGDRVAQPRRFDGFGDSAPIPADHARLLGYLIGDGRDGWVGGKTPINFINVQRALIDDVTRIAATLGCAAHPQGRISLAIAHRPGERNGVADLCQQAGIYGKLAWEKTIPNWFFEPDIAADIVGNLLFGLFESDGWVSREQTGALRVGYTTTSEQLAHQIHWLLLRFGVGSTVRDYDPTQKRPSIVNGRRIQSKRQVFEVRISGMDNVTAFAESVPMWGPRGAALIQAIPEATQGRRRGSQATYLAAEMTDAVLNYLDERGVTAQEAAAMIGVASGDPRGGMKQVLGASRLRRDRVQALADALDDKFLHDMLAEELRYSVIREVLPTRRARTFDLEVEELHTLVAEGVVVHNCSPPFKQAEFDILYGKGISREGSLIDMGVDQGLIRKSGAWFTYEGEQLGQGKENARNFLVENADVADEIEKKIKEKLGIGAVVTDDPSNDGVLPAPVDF
As to the kind of experiment: Fluorescence Cell-Free Homogeneous Dose Retest to Identify Inhibitors of RecA-Intein Splicing Activity. [Related pubchem assays (depositor defined):AID2097, AID2223, AID489010, AID492950]. It is filed as functional.

Experiment [3] addresses T4, Replicative DNA helicase DnaB (Mycobacterium tuberculosis, UniProt P9WMR3).
T4 sequence (P9WMR3 whole entry): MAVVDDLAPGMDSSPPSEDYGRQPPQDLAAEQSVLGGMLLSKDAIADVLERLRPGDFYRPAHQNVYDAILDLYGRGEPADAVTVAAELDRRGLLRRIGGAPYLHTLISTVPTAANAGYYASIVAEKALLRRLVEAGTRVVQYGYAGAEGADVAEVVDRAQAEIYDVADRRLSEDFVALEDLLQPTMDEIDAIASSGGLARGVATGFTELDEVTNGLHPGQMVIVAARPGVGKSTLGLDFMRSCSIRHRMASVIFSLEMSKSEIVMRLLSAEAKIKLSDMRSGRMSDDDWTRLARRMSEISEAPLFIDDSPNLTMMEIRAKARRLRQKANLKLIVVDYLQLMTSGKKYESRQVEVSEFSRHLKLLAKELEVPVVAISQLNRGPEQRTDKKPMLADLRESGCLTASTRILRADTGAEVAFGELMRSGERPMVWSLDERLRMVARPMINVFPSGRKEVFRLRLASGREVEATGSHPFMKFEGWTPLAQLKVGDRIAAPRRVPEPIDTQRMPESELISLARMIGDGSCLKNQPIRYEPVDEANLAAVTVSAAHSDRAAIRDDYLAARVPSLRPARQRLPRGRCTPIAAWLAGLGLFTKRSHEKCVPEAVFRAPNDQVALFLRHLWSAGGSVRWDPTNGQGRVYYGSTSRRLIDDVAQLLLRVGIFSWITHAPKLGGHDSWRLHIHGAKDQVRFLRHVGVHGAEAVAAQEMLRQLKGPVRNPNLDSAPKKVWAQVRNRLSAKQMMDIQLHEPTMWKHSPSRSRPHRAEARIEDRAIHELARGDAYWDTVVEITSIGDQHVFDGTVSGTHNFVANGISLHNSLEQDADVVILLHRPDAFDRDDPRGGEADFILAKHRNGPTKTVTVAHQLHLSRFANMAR
As to the kind of experiment: DnaB intein splicing inhibitors, dose response, biochemical, cell-free fluorescence (AID 449749). It is filed as functional.

A short description of the next experiment: cells. The format is functional.
Another experiment addresses Cytochrome P450 2D6 (Homo sapiens, UniProt P10635).
In a further experiment the target is T5, Cytochrome P450 1A2 (Homo sapiens, UniProt P05177).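 Also: PubChem cytochrome P450 panel assay, CYP1A2 panel member.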
T5 sequence (P05177 whole entry): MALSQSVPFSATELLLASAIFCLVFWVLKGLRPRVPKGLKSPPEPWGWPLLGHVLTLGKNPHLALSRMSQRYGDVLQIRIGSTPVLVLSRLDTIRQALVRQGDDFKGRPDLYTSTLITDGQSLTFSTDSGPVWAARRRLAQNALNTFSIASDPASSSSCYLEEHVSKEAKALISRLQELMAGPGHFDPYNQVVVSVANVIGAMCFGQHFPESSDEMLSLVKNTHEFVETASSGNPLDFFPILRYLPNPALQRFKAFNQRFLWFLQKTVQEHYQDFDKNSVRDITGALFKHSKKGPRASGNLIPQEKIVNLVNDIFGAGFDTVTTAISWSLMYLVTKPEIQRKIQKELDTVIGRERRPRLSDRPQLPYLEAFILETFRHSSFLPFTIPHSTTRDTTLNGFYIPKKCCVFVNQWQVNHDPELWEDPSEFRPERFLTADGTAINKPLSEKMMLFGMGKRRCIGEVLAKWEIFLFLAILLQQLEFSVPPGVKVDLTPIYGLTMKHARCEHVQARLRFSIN

Molecules are shown by their SMILES. Several values for one entry are separate records, joined by “and”; a condition that tells them apart may be missing. Equal entries are not always repeated. Activity calls are given as the source filed them.

Cytochrome P450 2C9, sequence (P11712 whole entry): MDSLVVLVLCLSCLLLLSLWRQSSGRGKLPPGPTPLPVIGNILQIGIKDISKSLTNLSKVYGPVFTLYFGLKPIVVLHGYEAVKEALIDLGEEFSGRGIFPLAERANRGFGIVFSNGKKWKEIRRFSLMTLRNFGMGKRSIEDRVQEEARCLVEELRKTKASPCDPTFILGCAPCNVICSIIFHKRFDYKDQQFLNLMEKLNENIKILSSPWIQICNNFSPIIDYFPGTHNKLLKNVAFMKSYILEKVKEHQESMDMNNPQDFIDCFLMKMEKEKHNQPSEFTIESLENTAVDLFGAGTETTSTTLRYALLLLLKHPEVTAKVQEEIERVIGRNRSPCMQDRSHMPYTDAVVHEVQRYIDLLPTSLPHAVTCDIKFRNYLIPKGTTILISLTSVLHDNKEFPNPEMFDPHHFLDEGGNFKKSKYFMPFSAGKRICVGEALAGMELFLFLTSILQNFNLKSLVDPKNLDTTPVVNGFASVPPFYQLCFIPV
Cytochrome P450 2D6, sequence (P10635 whole entry): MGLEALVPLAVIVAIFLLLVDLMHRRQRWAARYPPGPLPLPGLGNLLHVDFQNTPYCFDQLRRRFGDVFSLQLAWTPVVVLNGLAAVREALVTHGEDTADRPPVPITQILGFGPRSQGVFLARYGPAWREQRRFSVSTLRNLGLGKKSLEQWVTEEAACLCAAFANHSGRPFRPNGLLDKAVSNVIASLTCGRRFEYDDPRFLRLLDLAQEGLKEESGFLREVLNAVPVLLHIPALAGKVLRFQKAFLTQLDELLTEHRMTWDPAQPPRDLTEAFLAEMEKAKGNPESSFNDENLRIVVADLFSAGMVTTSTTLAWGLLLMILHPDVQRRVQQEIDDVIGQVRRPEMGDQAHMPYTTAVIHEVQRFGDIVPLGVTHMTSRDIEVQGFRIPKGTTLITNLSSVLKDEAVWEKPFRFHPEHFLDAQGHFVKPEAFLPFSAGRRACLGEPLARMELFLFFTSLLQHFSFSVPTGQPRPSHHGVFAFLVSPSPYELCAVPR

On to `CSCC(C)N1CCC(N2CCC(C(=O)NCc3ccccn3)CC2)CC1` (centres undefined), for which the values for the EC50 in experiment [1] and in experiment [2] were > 300 µM (not active) and 161 µM (active), respectively.

Consider `CCCC(CCC)C(=O)NNc1cc(O)c2c(=O)n(C)c(=O)n(C)c2n1`, for which, on Cytochrome P450 2C9, the AC50 is 0.178 µM (inconclusive).

In the case of `CCn1nc(C)c(C2C(C#N)=C(N)Oc3[nH]nc(C)c32)c1C` (centres undefined), the EC50 at Protein RecA is 12.5 µM (active). Moreover, in experiment [3], the AC50 was 88.9 µM (active).

Consider `COC(=O)COc1ccc2c(=O)c(-c3ccccc3)coc2c1`, for which the IC50 in “cells” is < 0.1 µM (active).

On to `N#Cc1ccccc1-c1ccc2ncnc(NCCN3CCOCC3)c2c1`, for which the AC50 on Cytochrome P450 2D6 was 39.8 µM (inconclusive).

On to `O=C(Cc1ccccc1)NNC(=O)c1cnccn1`, for which the figures for the EC50 in experiment [1] and in experiment [2] were 41.4 µM (active) and > 300 µM (not active), respectively.

Regarding `CCCc1nc(SCC(=O)N2CCc3ccccc3C2)c2ccccc2n1`, the EC50 on Protein RecA was 14.6 µM (active). The AC50 in experiment [3] was 14.1 µM (active).

With `O=S(=O)(Nc1cccnc1Cl)c1ccc2c(c1)OCCO2`, the concentration at half-maximal activity (AC50) on Cytochrome P450 2C9 was 15.8 µM (inconclusive).

Take `CCc1c2c(nc3cccc(SC)c13)COC2`: the AC50 on Cytochrome P450 2D6 is 39.8 µM (inconclusive).

Take `CC1(C)N=C(SCC(=O)Nc2ccc(Cl)cc2Cl)C(c2ccccc2)=N1`: the EC50 at Protein RecA was 17.7 µM (active). In addition, the AC50 in experiment [3] is 10.7 µM (active).

Consider `O=C(C/C=N/OCc1ccc(Cl)cc1Cl)c1ccc(Cl)cc1`, for which the AC50 at Cytochrome P450 2C9 and on Cytochrome P450 2D6 was 17.8 µM (inconclusive) each time.

For `CCN1C=CC2=C(C#N)C(N)C(C#N)(C#N)C(c3ccccc3C(F)(F)F)C2C1` (centres undefined), the values for the EC50 in experiment [1] and in experiment [2] were > 300 µM (not active) and 260 µM (inconclusive), respectively.

With `CN(C)/C=C/C(=O)c1ccc2noc(-c3ccc(F)cc3)c2c1`, the EC50 at Protein RecA is > 380 µM (inactive). Also, in experiment [3], the AC50 was > 380 µM (inactive).

On to `c1ccc(CN2CCC3(CCNCC3)CC2)cc1`, for which the AC50 at Cytochrome P450 2C9 is 25.1 µM (inconclusive).

For the molecule `CC1C(=O)NN=C1C(=O)N/N=C/c1ccco1` (centres undefined), the EC50 in experiment [1] and in experiment [2] was > 300 µM (not active) each time.

For the molecule `CC1(CCl)[N+]([O-])=C2CCCCC2=[N+]1[O-]`, the EC50 in experiment [1] was 121 µM (active); in experiment [2], > 300 µM (not active).

On to `Cc1ccccc1CSCCN=C(S)Nc1ccccc1`, for which the EC50 in experiment [1] and in experiment [2] was > 300 µM (not active) in each case.

`O=C1c2ccccc2C(=O)N1CCCCN(C(=O)c1ccc([N+](=O)[O-])cc1)c1ccc(Cl)cc1`: at Cytochrome P450 2D6, the AC50 is 15.8 µM (inconclusive).

Consider `Cc1ccccc1OCCN=C(S)Nc1ccccc1`, for which the AC50 at Cytochrome P450 2C9 is 10 µM (inconclusive); on Cytochrome P450 1A2, 3.16 µM (inconclusive).

As for `N#CC(C(=O)NCc1ccco1)c1nc2ccccc2nc1N1CCOCC1` (centres undefined), the IC50 in the experiment “cells” was 49 µM (active).

With `Cc1cc(NCc2ccccn2)ccc1Br`, the AC50 on Cytochrome P450 2C9 is 7.08 µM (inconclusive).

Consider `COc1ccc2c(c1OC)C(=O)O[C@H]2[C@H]1c2cc3c(cc2CCN1C)OCO3` [1R,9S-HYDRASTINE], for which, on Cytochrome P450 2C9, the AC50 was 1.58 nM (inconclusive) and 15.8 µM (inconclusive).

Turning to `Cc1c(NC(=O)C(Sc2ccccc2)c2ccccc2)cccc1[N+](=O)[O-]` (centres undefined), the AC50 on Cytochrome P450 2D6 was 3.16 µM (inconclusive).

Turning to `COc1ccccc1-c1cc(Nc2ccc(F)cc2)ncn1`, on Cytochrome P450 2D6, the AC50 was 39.8 µM (inconclusive).

Regarding `C/C(=N/Nc1ccc2ccccc2n1)c1ccccc1O`, the AC50 on Cytochrome P450 2C9 is 2.51 µM (inconclusive).

Consider `O=C(O)c1cc(Cl)c2c(c1)[C@@H]1C=CC[C@@H]1[C@H](c1ccc(S(=O)(=O)N3CCOCC3)cc1)N2`, for which the EC50 in experiment [1] was 29.7 µM (active); in experiment [2] it was > 300 µM (not active).

With `CC[C@H](C)C(=O)O[C@H]1CCC=C2C=C[C@H](C)[C@H](CC[C@@H]3C[C@H](O)CC(=O)O3)[C@H]21`, the AC50 on Cytochrome P450 1A2 and on Cytochrome P450 2D6 was 31.6 µM (inconclusive) each time.

Turning to `Cc1cccc(NC(=O)COC(=O)CCc2c[nH]c3ccccc23)c1`, the half-maximal inhibitory concentration (IC50) in “cells” was 0.71 µM (active).

In the case of `Cc1ccc2oc(=O)c3cc(C(=O)NCCCN4CCCCCC4)sc3c2c1`, the IC50 in the experiment “cells” is > 50 µM (active).

Turning to `CCCCCC(=O)Nc1cccc(-c2nc3ncccc3o2)c1`, on Cytochrome P450 2D6, the AC50 was 22.4 µM (inconclusive).

One may read the EC50 as the concentration needed to bring the measured effect to its halfway point. As usually defined, the AC50 is the concentration at which the activity in the assay is half-maximal. The term IC50 denotes the midpoint of a concentration-inhibition curve.

The values are drawn from ChEMBL document CHEMBL1201862, “PubChem BioAssay data set” (2004).
